Assay [1] deals with tobacco cutworm (Spodoptera litura) larvae. Description: Test against tobacco cutworm (Spodoptera litura) larvae, leaf dip. Format: in vivo. The conditions noted are these: active compound concentration of 100 ppm; third-instar larvae on sweet potato leaves; after 7 days. How it is done:
(§1) Unless not mentioned otherwise, the test solutions were prepared as follows:
(§2) Containing as solvent: Dimethylformamide, 3 parts by weight; and as emulsifier: Polyoxyethylene alkyl phenyl ether, 1 part by weight
(§3) To prepare the test solution, 1 part by weight of an active compound is mixed with the above-mentioned amount of solvent containing the above-mentioned amount of emulsifier, and the mixture is diluted with water to the desired concentration.
The leaves of sweet potato were immersed in the test solution at the appropriate concentration, and the leaves were dried in air. The leaves were then placed in a petri dish having a diameter of 9 cm, and ten third-instar larvae of tobacco cutworm were released therein. The petri dish was placed in a temperature-controlled chamber at 25° C. After 2 days and 4 days sweet potato leaves were additionally added. After 7 days, the number of dead larvae was counted to calculate the insecticidal activity. An insecticidal activity of 100% means that all larvae were killed, whereas an insecticidal activity of 0% means that no larva was killed. In the current test, the results of two petri dishes for each partition were averaged.

Assay [2] has as its system cucurbit leaf beetle (Aulacophora femoralis). As to the kind of experiment: Test against cucurbit leaf beetle (Aulacophora femoralis), leaf dip. Particulars: active compound concentration of 100 ppm; second-instar larvae on cucumber leaves; after 7 days. Format: in vivo. How it is done:
as §1, §2, §3
Cucumber leaves were immersed in the test solution at the appropriate concentration, and the leaves were dried in air. The leaves were then placed in a plastic cup containing sterilized black soil, and five second-instar larvae of cucurbit leaf beetle were released therein. The plastic cup was placed in a temperature-controlled chamber at 25° C. After 7 days, the number of dead larvae was counted, and thus the insecticidal activity was calculated. An insecticidal activity of 100% means that all beetles were killed, whereas an insecticidal activity of 0% means that no beetle was killed.

`CCc1cc(C(Oc2ccc(C(F)(F)F)cc2)(C(F)(F)F)C(F)(F)F)cc(C)c1NC(=O)c1cccc(NC(=O)c2cccnc2Cl)c1` [1-130]: the insecticidal activity in assay [1] and in assay [2] was 100% each time.
For the compound `CCc1cc(C(Oc2ccc(OC(F)(F)F)cc2)(C(F)(F)F)C(F)(F)F)cc(C)c1NC(=O)c1cccc(NC(=O)c2cccnc2Cl)c1` [1-131], the insecticidal activity in assay [1] and in assay [2] was 100% throughout.
In the case of `CCc1cc(C(ON=Cc2ccc(Cl)cc2)(C(F)(F)F)C(F)(F)F)cc(C)c1NC(=O)c1cccc(NC(=O)c2cccnc2Cl)c1` [1-138], the insecticidal activity in assay [1] and in assay [2] was 100% each time.
In the case of `CCc1cc(C(Oc2ccnc(C(F)(F)C(F)(F)F)c2)(C(F)(F)F)C(F)(F)F)cc(C)c1NC(=O)c1cccc(NC(=O)c2cccnc2Cl)c1` [1-142], the insecticidal activity in assay [1] and in assay [2] was 100% in each case.
Consider `CCc1cc(C(OCC(F)(F)F)(C(F)(F)F)C(F)(F)F)cc(C)c1NC(=O)c1cccc(NC(=O)c2cccnc2Cl)c1` [1-146], for which the insecticidal activity in assay [1] and in assay [2] was 100% each time.
In the case of `CCc1cc(C(Oc2ccc(Cl)c(Cl)c2)(C(F)(F)F)C(F)(F)F)cc(C)c1NC(=O)c1cccc(NC(=O)c2cccnc2Cl)c1` [1-151], the insecticidal activity in assay [1] and in assay [2] was 100% in each case.
On to `CCc1cc(C(Oc2ccc(I)cc2)(C(F)(F)F)C(F)(F)F)cc(C)c1NC(=O)c1cccc(NC(=O)c2cccnc2Cl)c1` [1-152], for which the insecticidal activity in assay [1] and in assay [2] was 100% each time.
Take `Cc1cc(C(Oc2ccc(Cl)cc2)(C(F)(F)F)C(F)(F)F)cc(C)c1NC(=O)c1cccc(NC(=O)c2cccnc2Cl)c1` [1-160]: the insecticidal activity in assay [1] and in assay [2] was 100% each time.
Turning to `Cc1cc(C(Oc2ccc(Br)cc2)(C(F)(F)F)C(F)(F)F)cc(C)c1NC(=O)c1cccc(NC(=O)c2cccnc2Cl)c1` [1-166], the insecticidal activity in assay [1] and in assay [2] was 100% throughout.
Regarding `CCc1cc(C(Oc2ccc(C#N)cc2)(C(F)(F)F)C(F)(F)F)cc(C)c1NC(=O)c1cccc(NC(=O)c2cccnc2Cl)c1` [1-168], the insecticidal activity in assay [1] and in assay [2] was 100% each time.
Take `CCc1cc(C(Oc2cccnc2)(C(F)(F)F)C(F)(F)F)cc(C)c1NC(=O)c1cccc(NC(=O)c2cccnc2Cl)c1` [1-171]: the insecticidal activity in assay [1] and in assay [2] was 100% throughout.
Regarding `CCc1cc(C(Oc2ccc(Cl)cn2)(C(F)(F)F)C(F)(F)F)cc(C)c1NC(=O)c1cccc(NC(=O)c2cccnc2Cl)c1` [1-173], the insecticidal activity in assay [1] and in assay [2] was 100% in each case.
Consider `CCc1cc(C(Oc2ccc(Cl)cc2)(C(F)(F)F)C(F)(F)F)cc(CC)c1NC(=O)c1cccc(NC(=O)c2cccnc2Cl)c1` [1-176], for which the insecticidal activity in assay [1] and in assay [2] was 100% each time.
As for `CCc1cc(C(Oc2ccc(Br)cc2)(C(F)(F)F)C(F)(F)F)cc(CC)c1NC(=O)c1cccc(NC(=O)c2cccnc2Cl)c1` [1-177], the insecticidal activity in assay [1] and in assay [2] was 100% each time.
`Cc1cc(C(Oc2ccc(Cl)nc2)(C(F)(F)F)C(F)(F)F)cc(C)c1NC(=O)c1cccc(NC(=O)c2cccnc2Cl)c1` [1-182]: the insecticidal activity in assay [1] and in assay [2] was 100% each time.
Turning to `Cc1cc(C(n2cccc2Br)(C(F)(F)F)C(F)(F)F)cc(C)c1NC(=O)c1cccc(NC(=O)c2cccnc2Cl)c1` [2-2], the insecticidal activity in assay [1] and in assay [2] was 100% each time.
On to `Cc1cc(C(n2cc(Cl)cn2)(C(F)(F)F)C(F)(F)F)cc(Br)c1NC(=O)c1cccc(NC(=O)c2ccccc2F)c1` [2-31], for which the insecticidal activity in assay [1] and in assay [2] was 100% each time.
On to `O=C(Nc1c(Cl)cc(C(n2cc(Cl)cn2)(C(F)(F)F)C(F)(F)F)cc1Cl)c1cccc(NC(=O)c2ccccc2F)c1` [2-32], for which the insecticidal activity in assay [1] and in assay [2] was 100% throughout.
Consider `O=C(Nc1c(Br)cc(C(n2cc(Cl)cn2)(C(F)(F)F)C(F)(F)F)cc1Br)c1cccc(NC(=O)c2ccccc2F)c1` [2-33], for which the insecticidal activity in assay [1] and in assay [2] was 100% each time.
`O=C(Nc1c(I)cc(C(n2cc(Cl)cn2)(C(F)(F)F)C(F)(F)F)cc1I)c1cccc(NC(=O)c2ccccc2F)c1` [2-34]: the insecticidal activity in assay [1] and in assay [2] was 100% each time.
Turning to `Cc1cc(C(n2cc(Cl)cn2)(C(F)(F)F)C(F)(F)F)cc(Br)c1NC(=O)c1cccc(NC(=O)c2c(F)cccc2F)c1` [2-41], the insecticidal activity in assay [1] and in assay [2] was 100% in each case.
Turning to `CCc1cc(C(n2cc(Cl)cn2)(C(F)(F)F)C(F)(F)F)cc(C)c1NC(=O)c1cccc(NC(=O)c2cccnc2F)c1` [2-44], the insecticidal activity in assay [1] and in assay [2] was 100% throughout.
For the compound `Cc1cc(C(n2cc(Cl)cn2)(C(F)(F)F)C(F)(F)F)cc(Br)c1NC(=O)c1cccc(NC(=O)c2cccnc2Cl)c1` [2-59], the insecticidal activity in assay [1] and in assay [2] was 100% in each case.
Turning to `O=C(Nc1c(Cl)cc(C(n2cc(Cl)cn2)(C(F)(F)F)C(F)(F)F)cc1Cl)c1cccc(NC(=O)c2cccnc2Cl)c1` [2-61], the insecticidal activity in assay [1] and in assay [2] was 100% in each case.
On to `O=C(Nc1c(I)cc(C(n2cc(Cl)cn2)(C(F)(F)F)C(F)(F)F)cc1I)c1cccc(NC(=O)c2cccnc2Cl)c1` [2-63], for which the insecticidal activity in assay [1] and in assay [2] was 100% in each case.
Consider `CCc1cc(C(n2cc(Br)cn2)(C(F)(F)F)C(F)(F)F)cc(C)c1NC(=O)c1cccc(NC(=O)c2cccnc2Cl)c1` [2-87], for which the insecticidal activity in assay [1] and in assay [2] was 100% each time.
On to `CCc1cc(C(n2cc(C(F)(F)F)cn2)(C(F)(F)F)C(F)(F)F)cc(C)c1NC(=O)c1cccc(NC(=O)c2cccnc2Cl)c1` [2-105, 2-chloro-N-{3-[(2-ethyl-4-{1,1,1,3,3,3-hexafluoro-2-[4-(trifluoromethyl)-1H-pyrazol-1-yl]propan-2-yl}-6-methylphenyl)carbamoyl]-phenyl}pyridine-3-carboxamide], for which the insecticidal activity in assay [1] and in assay [2] was 100% each time.
Take `Cc1cc(C(n2cc(I)c(I)n2)(C(F)(F)F)C(F)(F)F)cc(C)c1NC(=O)c1cccc(NC(=O)c2cccnc2Cl)c1` [2-116]: the insecticidal activity in assay [1] and in assay [2] was 100% each time.
For `CCc1cc(C(n2nc(Br)c(Br)c2Br)(C(F)(F)F)C(F)(F)F)cc(C)c1NC(=O)c1cccc(NC(=O)c2cccnc2F)c1` [2-128], the insecticidal activity in assay [1] and in assay [2] was 100% in each case.
With `Cc1cc(C(n2nc(Br)c(Br)c2Br)(C(F)(F)F)C(F)(F)F)cc(C)c1NC(=O)c1cccc(NC(=O)c2cccnc2Cl)c1` [2-133], the insecticidal activity in assay [1] and in assay [2] was 100% in each case.
For `CCc1cc(C(n2nc(Br)c(Br)c2Br)(C(F)(F)F)C(F)(F)F)cc(C)c1NC(=O)c1cccc(NC(=O)c2cccnc2Cl)c1` [2-134], the insecticidal activity in assay [1] and in assay [2] was 100% each time.
In the case of `Cc1cc(C(n2cnc(Cl)c2Cl)(C(F)(F)F)C(F)(F)F)cc(C)c1NC(=O)c1cccc(NC(=O)c2cccnc2Cl)c1` [2-143], the insecticidal activity in assay [1] and in assay [2] was 100% in each case.
`Cc1cc(C(n2c(Br)nc(Br)c2Br)(C(F)(F)F)C(F)(F)F)cc(C)c1NC(=O)c1cccc(NC(=O)c2cccnc2Cl)c1` [2-144]: the insecticidal activity in assay [1] and in assay [2] was 100% throughout.
For `Cc1cc(C(n2nccn2)(C(F)(F)F)C(F)(F)F)cc(C)c1NC(=O)c1cccc(NC(=O)c2cccnc2Cl)c1` [2-147], the insecticidal activity in assay [1] and in assay [2] was 100% each time.
`Cc1cc(C(n2cnc(C(F)(F)F)n2)(C(F)(F)F)C(F)(F)F)cc(C)c1NC(=O)c1cccc(NC(=O)c2cccnc2Cl)c1` [2-153]: the insecticidal activity in assay [1] and in assay [2] was 100% each time.
As to `CCc1cc(C(N2CC=CCC2)(C(F)(F)F)C(F)(F)F)cc(C)c1NC(=O)c1cccc(NC(=O)c2cccnc2Cl)c1` [2-180], the insecticidal activity in assay [1] and in assay [2] was 100% throughout.
For `CCc1cc(C(n2cnc(Cl)n2)(C(F)(F)F)C(F)(F)F)cc(C)c1NC(=O)c1cccc(NC(=O)c2cccnc2Cl)c1` [2-183], the insecticidal activity in assay [1] and in assay [2] was 100% in each case.

Values taken from patent publication US20110201603A1, “Novel Acylaminobenzamide Derivatives” (Bayer CropScience AG, priority 2008, published 2011).
